The target of this test is WDR5 (Homo sapiens, UniProt P61964). Put plainly: Competition-based fluorescence polarization anisotropy assay. The conditions noted are these: binding to WDR5; displacement of FITC-labeled small molecule probe (analogous to Example J2 or HCH-25) or peptide probe FITC-AHx-SEEEIDVVSV; pH 6.0; Ki converted from IC50. The procedure, abridged:
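Competition fluorescence polarization anisotropy binding to WDR5 using a FITC-labeled peptide probe or a fluorescently labeled small-molecule probe. Buffer: 200 mM phosphate, 300 mM NaCl, 0.5 mM TCEP, 0.1% Chaps, pH 6.0. Displacement data were converted to Ki.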
For orientation: In fluorescence polarisation assays a small probe gives low polarisation when free and higher when bound to something large.
With `CC(C)N(CCS(=O)(=O)c1cc(Cl)cc(NS(=O)(=O)c2cc(Br)ccc2O)c1)C(C)C` [Example S41, 5-Bromo-N-(3-chloro-5-((2-(diisopropylamino)ethyl)sulfonyl)phenyl)-2-hydroxybenzenesulfonamide], the Ki turned out to be 3.81 µM. Consider `O=S(=O)(Nc1cc(Cl)ccc1O)c1cccc(Br)c1` [HCH-1-9-4re, 3-Bromo-N-(5-chloro-2-hydroxyphenyl)benzenesulfonamide], for which the Ki came to 36.1 µM. For `O=S(=O)(Nc1cc(Cl)cc(S(=O)(=O)NCC2CCCO2)c1O)c1cc(Br)cc(Cl)c1O` (stereo not drawn) [Example S32, 5-Bromo-3-chloro-N-(5-chloro-2-hydroxy-3-(N-((tetrahydrofuran-2-yl)methyl)sulfamoyl)phenyl)-2-hydroxybenzenesulfonamide] the value was 0.44 µM; for `COCCNC(=O)c1cc(C2CC2)cc(NS(=O)(=O)c2cc(Br)cc(F)c2O)c1O` [Example J99, 3-((5-Bromo-3-fluoro-2-hydroxyphenyl)sulfonamido)-5-cyclopropyl-2-hydroxy-N-(2-methoxyethyl)benzamide], 3.72 µM. With `COc1ccc(Br)cc1S(=O)(=O)Nc1cc(OC(F)(F)F)cc(C(=O)NCC2CCCO2)c1O` (stereo not drawn) [Example J179, 3-((5-Bromo-2-methoxyphenyl)sulfonamido)-2-hydroxy-N-((tetrahydrofuran-2-yl)methyl)-5-(trifluoromethoxy)benzamide], the Ki is 0.74 µM. `COc1ccc(Br)cc1S(=O)(=O)Nc1cc(Cl)cc(C(=O)N(C)C)c1O` [Example J50, 3-((5-Bromo-2-methoxyphenyl)sulfonamido)-5-chloro-2-hydroxy-N,N-dimethylbenzamide] registered a Ki of 74.2 µM.

For `O=C(N[C@@H]1CCOC1)c1c(O)c(NS(=O)(=O)c2cc(Br)ccc2O)cc(C2CC2)c1F` [Example J132, (R)-3-((5-Bromo-2-hydroyphenyl)sulfonamido)-5-cyclopropyl-6-fluoro-2-hydroxy-N-(tetrahydrofuran-3-yl)benzamide], affinity was put at a Ki of 2.45 µM. `CNC(=O)c1cc(C2(C#N)CCC2)cc(NS(=O)(=O)c2cc(Br)cc(OC(F)(F)F)c2O)c1O` [Example J214, 3-((5-Bromo-2-hydroxy-3-(trifluoromethoxy)phenyl)sulfonamido)-5-(1-cyanocyclobutyl)-2-hydroxy-N-methylbenzamide] yielded a Ki of 0.39 µM. `O=S(=O)(Nc1cc(S(F)(F)(F)(F)F)ccc1O)c1cc(Br)ccc1O` [JDM-08-142A, 5-Bromo-2-hydroxy-N-(2-hydroxy-5-(pentafluorosulfanyl)phenyl)benzenesulfonamide] registered a Ki of 0.11 µM.

Consider `O=C(O)c1cc(Cl)cc(NS(=O)(=O)c2cc(Cl)c(Cl)cc2O)c1O` [Example J11, 5-Chloro-3-((4,5-dichloro-2-hydroxyphenyl)sulfonamido)-2-hydroxybenzoic acid], for which the Ki is 2.49 µM. Consider `O=C(O)c1cc(OC(F)(F)F)cc(NS(=O)(=O)c2cc(Br)cc(CCCO)c2O)c1O` [HCH-27, 3-((5-Bromo-2-hydroxy-3-(3-hydroxypropyl)phenyl)sulfonamido)-2-hydroxy-5-(trifluoromethoxy)benzoic acid], for which the Ki was 0.4 µM. `COCCNC(=O)c1cc(Cl)cc(NS(=O)(=O)c2cc(Br)ccc2O)c1O` [Example J15, 3-((5-Bromo-2-hydroxyphenyl)sulfonamido)-5-chloro-2-hydroxy-N-(2-methoxyethyl)benzamide] returned a Ki of 0.61 µM. `CCS(=O)(=O)c1cc(Cl)cc(NS(=O)(=O)c2cc(Br)ccc2O)c1O` [Example S22, 5-Bromo-N-(5-chloro-3-(ethylsulfonyl)-2-hydroxyphenyl)-2-hydroxybenzenesulfonamide] gave a Ki of 0.25 µM. For `CCc1cc(NS(=O)(=O)c2cc(Br)ccc2O)c(O)c(C(=O)O)c1` [HCH-18, 3-((5-Bromo-2-hydroxyphenyl)sulfonamido)-5-ethyl-2-hydroxybenzoic acid], the Ki turned out to be 0.06 µM. Against the preceding compound, the Ki is about 4.2-fold lower. `COc1ccc(Cl)cc1S(=O)(=O)Nc1cc(Cl)cc([N+](=O)[O-])c1O` [NE2, 5-Chloro-N-(5-chloro-2-hydroxy-3-nitrophenyl)-2-methoxybenzenesulfonamide] gave an inhibition constant Ki of 5.05 µM.

The term Ki denotes the dissociation constant of the complex between target and ligand, obtained from inhibition or displacement. Low readings indicate higher affinity, high ones lower affinity.

For the origin of these results see US12398097B2, “WDR5-MYC inhibitors” (Vanderbilt University, priority 2019, dated 2025).
